Laboratory results from publication PMC8118430, “Utility of novel 2-furanones in synthesis of other heterocyclic compounds having anti-inflammatory activity with dual COX2/LOX inhibition” (Journal of Enzyme Inhibition and Medicinal Chemistry, 2021).
Where two headings read alike, the source gives them in different places.

Assays:
15-LOX = biological target: T1, 15-LOX (Glycine max, UniProt P08170); experiment: Lipoxygenase (15-LOX) inhibition assay (Cayman LOX inhibitor screening kit); assay type: biochemical, soybean; settings: mean ± SD of three experiments
T1 construct: purchased Cayman Chemical 760700
T1 sequence (P08170 1-839): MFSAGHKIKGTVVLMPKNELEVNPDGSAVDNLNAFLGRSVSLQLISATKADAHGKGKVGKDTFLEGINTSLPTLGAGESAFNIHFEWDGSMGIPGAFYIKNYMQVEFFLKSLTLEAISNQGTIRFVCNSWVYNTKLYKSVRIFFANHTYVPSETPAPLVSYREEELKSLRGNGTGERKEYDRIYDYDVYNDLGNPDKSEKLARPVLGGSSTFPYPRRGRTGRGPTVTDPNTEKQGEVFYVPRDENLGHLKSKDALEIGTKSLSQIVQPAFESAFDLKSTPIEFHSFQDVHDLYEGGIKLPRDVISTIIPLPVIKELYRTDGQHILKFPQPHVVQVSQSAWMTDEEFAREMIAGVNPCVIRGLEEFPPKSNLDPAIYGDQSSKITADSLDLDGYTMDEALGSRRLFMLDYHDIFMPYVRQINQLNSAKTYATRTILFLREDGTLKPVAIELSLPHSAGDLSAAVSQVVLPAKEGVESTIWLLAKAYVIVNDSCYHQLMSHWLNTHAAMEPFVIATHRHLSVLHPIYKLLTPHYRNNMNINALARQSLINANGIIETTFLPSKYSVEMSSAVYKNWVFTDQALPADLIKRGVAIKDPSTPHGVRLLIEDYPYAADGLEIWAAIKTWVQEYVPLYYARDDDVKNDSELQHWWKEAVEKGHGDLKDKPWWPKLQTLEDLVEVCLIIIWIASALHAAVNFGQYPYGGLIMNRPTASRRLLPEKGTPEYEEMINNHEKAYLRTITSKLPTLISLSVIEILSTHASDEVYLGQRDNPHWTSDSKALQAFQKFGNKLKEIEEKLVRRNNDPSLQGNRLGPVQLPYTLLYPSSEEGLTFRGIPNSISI
Procedure: Briefly, in a 96-well plate, 10 µl of each test compound (dissolved in DMSO) or vehicle were pre-incubated with 90 µl of 15-LOX enzyme. The reaction was started by addition of 10 µl of substrate (AA) and the plate was shaken for at least 5 min. Then, 100 µl of chromogen supplied with the kit was added to each well to stop the enzymatic reaction and develop the colour. The absorbance was measured at 490 nm using microplate reader.
Therefore, the soybean LOX is most like the mammalian 15-LOX[59].

TNF-α = biological target: T2, TNF-α (Homo sapiens, UniProt P01375); experiment: TNFR2: TNF-α [biotinylated] inhibitor screening assay; assay type: binding; settings: mean ± SD of three experiments
T2 construct: purchased BPS Bioscience 79756
T2 sequence (P01375 77-233 limits assumed): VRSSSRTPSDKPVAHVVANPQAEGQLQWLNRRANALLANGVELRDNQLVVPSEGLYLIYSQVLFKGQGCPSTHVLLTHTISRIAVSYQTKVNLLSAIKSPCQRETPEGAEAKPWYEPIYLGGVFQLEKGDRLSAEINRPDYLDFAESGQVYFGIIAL
Procedure: The assay was performed in triplicates using TNFR2: TNF-α [biotinylated] […] First, TNFR2 is coated on a 96-well plate. Next, biotinylated TNF-α is incubated with TNFR2 on the plate. Finally, the plate was treated with streptavidin-HRP followed by addition of an HRP substrate to produce chemiluminescence, which can be measured using a chemiluminescence reader.

COX-1 = biological target: T3, COX-1 (Ovis aries, UniProt P05979); experiment: Cyclooxygenase COX-1 inhibition assay (Cayman COX inhibitor screening kit, EIA)
T3 sequence (P05979 25-600): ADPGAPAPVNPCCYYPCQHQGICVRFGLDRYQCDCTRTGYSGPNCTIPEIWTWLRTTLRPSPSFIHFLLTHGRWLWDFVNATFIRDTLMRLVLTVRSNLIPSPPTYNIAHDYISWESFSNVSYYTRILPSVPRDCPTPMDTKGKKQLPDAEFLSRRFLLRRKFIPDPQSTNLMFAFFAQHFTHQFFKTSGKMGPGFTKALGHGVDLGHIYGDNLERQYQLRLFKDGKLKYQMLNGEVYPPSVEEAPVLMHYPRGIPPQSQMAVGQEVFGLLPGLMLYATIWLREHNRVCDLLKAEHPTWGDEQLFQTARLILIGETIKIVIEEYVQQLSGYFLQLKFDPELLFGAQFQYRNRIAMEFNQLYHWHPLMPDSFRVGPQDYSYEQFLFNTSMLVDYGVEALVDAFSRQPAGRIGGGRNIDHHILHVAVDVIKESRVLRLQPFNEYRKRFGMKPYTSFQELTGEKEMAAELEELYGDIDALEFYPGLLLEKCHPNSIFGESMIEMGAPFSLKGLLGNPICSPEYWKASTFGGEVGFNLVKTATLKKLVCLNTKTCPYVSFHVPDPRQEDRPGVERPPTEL
Procedure: (§1) Tested compounds were dissolved in DMSO. […] The COX inhibitor screening assay depends on direct measurement of the amount of PG2α produced in the COX reaction. […] Enzyme catalysis was terminated by addition of 50 µl 1 M HCl and 100 µl of the saturated stannous chloride solution. The PGs are quantified by enzyme immunoassay (EIA) at 410 nm.
(§2) Thus, the newly synthesised compounds were tested for their anti-inflammatory activity against isozymes COX-1 and COX-2, which were determined by the COX-catalysed transformation of AA into PGH2 that was reduced to PGF2α and detected by the EIA[53], as shown in Table 1.

COX-2 = biological target: T4, COX-2 (Homo sapiens, UniProt P35354); experiment: Cyclooxygenase COX-2 inhibition assay (Cayman COX inhibitor screening kit, EIA); settings: for Selectivity indexes (SI): SI = IC50 COX-1/COX-2 ratios
T4 sequence (P35354 18-604): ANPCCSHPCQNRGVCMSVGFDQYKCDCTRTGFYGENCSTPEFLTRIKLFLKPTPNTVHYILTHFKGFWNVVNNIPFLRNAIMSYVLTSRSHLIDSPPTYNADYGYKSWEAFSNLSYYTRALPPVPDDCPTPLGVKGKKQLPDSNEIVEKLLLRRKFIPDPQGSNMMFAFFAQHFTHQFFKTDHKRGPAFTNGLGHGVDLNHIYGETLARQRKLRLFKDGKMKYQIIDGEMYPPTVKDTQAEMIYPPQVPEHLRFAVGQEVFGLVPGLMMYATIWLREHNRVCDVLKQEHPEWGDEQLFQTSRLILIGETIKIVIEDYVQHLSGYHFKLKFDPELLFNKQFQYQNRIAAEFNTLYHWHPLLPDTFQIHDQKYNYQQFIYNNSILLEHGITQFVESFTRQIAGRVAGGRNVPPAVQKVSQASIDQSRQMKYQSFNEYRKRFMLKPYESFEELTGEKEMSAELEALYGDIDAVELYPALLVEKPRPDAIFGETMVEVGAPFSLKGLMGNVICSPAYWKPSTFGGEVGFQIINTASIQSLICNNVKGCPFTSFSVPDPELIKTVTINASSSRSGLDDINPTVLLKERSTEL
Procedure: as §1, §2

[1] = read-out: COX1 IC50, mean ± SD of three experiments
[2] = read-out: COX 2 IC50, mean ± SD of three experiments

SMILES | IC50 (15-LOX) [µM] | IC50 (TNF-α) [nM] | melting point [°C] | IC50 (COX-1) [µM] | IC50 (COX-2) [nM] | Selectivity indexes (SI) (COX-2) | times less active than the reference drug indomethacin as COX-1 inhibitor (COX-1; ratio of COX-1 IC50 values) | IC50 (COX-1; [1]) [µM] | IC50 (COX-2; [2]) [nM]
O=C1OC(c2ccc(Cl)c(Cl)c2)=CC1=Cc1ccccc1[N+](=O)[O-] [Compound 2a, 5-(3,4-Dichlorophenyl)3-(2-nitrobenzylidene)-furan-2-one] | 5.1 ± 0.1 | 7.47 ± 0.12 | 259 to 261 | 4.53 ± 0.12 | 350 ± 10 | 12.94 |  |  | 
O=C1OC(c2ccc(Cl)c(Cl)c2)=CC1=Cc1cccc([N+](=O)[O-])c1 [Compound 2b, 5-(3,4-Dichlorophenyl)3-(3-nitrobenzylidene)-furan-2-one] | 4.4 ± 0.1 | 7.77 ± 1.68 | 230 to 232 | 6.97 ± 0.12 | 280 ± 10 | 24.89 |  |  | 
CN(C)c1ccc(C=C2C=C(c3ccc(Cl)c(Cl)c3)OC2=O)cc1 [Compound 2c, 5-(3,4-Dichlorophenyl)3-(4-dimethylaminobenzylidene)-furan-2-one] | 6.13 ± 0.12 | 8.2 ± 0.1 | 204 to 206 | 3.93 ± 0.06 | 420 ± 20 | 9.36 | 39 |  | 
O=C1NC(c2ccc(Cl)c(Cl)c2)=CC1=Cc1ccccc1[N+](=O)[O-] [Compound 3a, 5-(3,4-Dichlorophenyl)-3-(2-nitrobenzylidene)-1H-pyrrol-2-one] | 2.33 ± 0.12 | 5.93 ± 0.15 | > 300 | 8.37 ± 0.12 | 190 ± 10 | 44.05 |  |  | 
O=C1NC(c2ccc(Cl)c(Cl)c2)=CC1=Cc1cccc([N+](=O)[O-])c1 [Compound 3b, 5-(3,4-Dichlorophenyl)-3-(3-nitrobenzylidene)-1H-pyrrol-2-one] | 1.87 ± 0.15 | 8.27 ± 0.12 | > 300 | 6.87 ± 0.12 | 390 ± 10 | 17.62 |  |  | 
CN(C)c1ccc(C=C2C=C(c3ccc(Cl)c(Cl)c3)NC2=O)cc1 [Compound 3c, 5-(3,4-Dichlorophenyl)-3-(4-dimethylaminobenzylidene)-1H-pyrrol-2-one] | 2.21 ± 0.98 | 6.77 ± 0.12 | > 300 | 5.93 ± 0.15 | 340 ± 10 | 17.44 |  |  | 
O=C(NCc1ccccc1)C(=Cc1ccccc1[N+](=O)[O-])CC(=O)c1ccc(Cl)c(Cl)c1 [Compound 4a, N-benzyl-2-(2-nitrobenzylidene)-4-(3,4-dichlorophenyl)-4-oxobutanamide] | 5.47 ± 0.12 | 4.77 ± 0.12 | 250 to 252 | 11.1 ± 0.15 | 50 | 221.40 |  |  | 
O=C(NCc1ccccc1)C(=Cc1cccc([N+](=O)[O-])c1)CC(=O)c1ccc(Cl)c(Cl)c1 [Compound 4b, N-benzyl-2-(3-nitrobenzylidene)-4-(3,4-dichlorophenyl)-4-oxobutanamide] | 5.87 ± 0.06 | 3.53 ± 0.12 | 124 to 126 | 13.3 ± 0.15 | 60 | 222.17 |  |  | 
CN(C)c1ccc(C=C(CC(=O)c2ccc(Cl)c(Cl)c2)C(=O)NCc2ccccc2)cc1 [Compound 4c, N-benzyl-2-(4-dimethylaminobenzylidene]-4-(3,4-dichlorophenyl)-4-oxobutanamide] | 4.67 ± 0.06 | 5.47 ± 0.12 | 241 to 243 | 11.9 ± 0.1 | 50 | 238.00 |  |  | 
O=C1NN(c2ccccc2)C(c2ccc(Cl)c(Cl)c2)=CC1=Cc1ccccc1[N+](=O)[O-] [Compound 5a, 6-(3,4-Dichlorophenyl)-4-(2-nitrobenzylidene)-1-phenyl-1,4-dihydropyridazin-3(2H)-one] | 2.7 ± 0.95 | 4.93 ± 0.06 | > 300 | 12.73 ± 0.12 | 60 | 212.17 |  |  | 
O=C1NN(c2ccccc2)C(c2ccc(Cl)c(Cl)c2)=CC1=Cc1cccc([N+](=O)[O-])c1 [Compound 5b, 6-(3,4-Dichlorophenyl)-4-(3-nitrobenzylidene)-1-phenyl-1,4-dihydropyridazin-3(2H)-one] | 2.43 ± 0.12 | 3.27 ± 0.12 | > 300 | 13 ± 0.1 | 40 | 325.00 |  |  | 
CN(C)c1ccc(C=C2C=C(c3ccc(Cl)c(Cl)c3)N(c3ccccc3)NC2=O)cc1 [Compound 5c, 6-(3,4-Dichlorophenyl)-4-(4-dimethylaminobenzylidene)-1-phenyl-1,4-dihydropyridazin-3(2H)-one] | 2.97 ± 0.12 | 3.57 ± 0.12 | > 300 | 11.7 ± 0.12 | 90 | 130.33 |  |  | 
O=c1[nH]nc(-c2ccc(Cl)c(Cl)c2)cc1Cc1ccccc1[N+](=O)[O-] [Compound 7a, 3-(3,4-Dichlorophenyl)-5-[(2-nitropheny)l-methyl]-1H-pyridazin-6-one] | 5.47 ± 0.12 | 8.53 ± 0.12 |  |  |  | 41.35 |  | 7.03 ± 0.15 | 170 ± 10
O=c1[nH]nc(-c2ccc(Cl)c(Cl)c2)cc1Cc1cccc([N+](=O)[O-])c1 [Compound 7b, 3-(3,4-Dichlorophenyl)-5-[(3-nitropheny)l-methyl]-1H-pyridazin-6-one] | 5.87 ± 0.06 | 8.17 ± 0.06 |  |  |  | 26.68 |  | 6.67 ± 0.12 | 250 ± 10
CN(C)c1ccc(Cc2cc(-c3ccc(Cl)c(Cl)c3)n[nH]c2=O)cc1 [Compound 7c, 3-(3,4-Dichlorophenyl)-5-[(4-dimethylaminopheny)l-methyl]-1H-pyridazin-6-one] | 4.67 ± 0.06 | 7.57 ± 0.06 |  |  |  | 69.42 |  | 8.33 ± 0.06 | 120 ± 10
O=C(CC(=Cc1cccc([N+](=O)[O-])c1)c1n[nH]c(=S)o1)c1ccc(Cl)c(Cl)c1 [Compound 9b, 1-(3,4-Dichlorophenyl)-4-(3-nitrophenyl)-3-(2-thioxo-4,5-dihydro-1,3,4-oxadiazol-5-yl)but-3-en-1-one] | 1.63 ± 0.15 | 4.33 ± 0.12 |  | 10.4 ± 0.12 |  |  |  |  | 
